The nature of the data set: photoluminescence quantum yield (fraction); solvent given as SMILES.

The compound `CC[N+](CC)=c1ccc2c(C(F)(F)F)c3c(oc-2c1)-c1ccc(N(C)C)cc1CC3` returned a photoluminescence quantum yield (in CCO) of 0.163, a photoluminescence quantum yield (in ClCCl) of 0.336 and a photoluminescence quantum yield (in O) of 0.039.
As to `Fc1ccc(-c2c3ccccc3nc3cc4ccccc4cc23)cc1`, the photoluminescence quantum yield (in ClCCl) worked out at 0.48.
With `CCCCCCCCCCCCCCCCOc1cc(C#Cc2ccc3ccccc3c2)c(OCCCCCCCCCCCCCCCC)cc1C#Cc1ccc(C=C(C#N)C#N)cc1`, the photoluminescence quantum yield (in Brc1ccccc1) is 0.43; the photoluminescence quantum yield (in C1CCCCC1) was 0.9; the photoluminescence quantum yield (in C1CCOC1) was determined as 0.5; the photoluminescence quantum yield (in C1COCCO1) was found to be 0.5; the photoluminescence quantum yield (in CCCCCC) amounted to 0.87; the photoluminescence quantum yield (in CCCCCCCCO) came to 0.35. Also, the photoluminescence quantum yield by setting is: (in CCCCOCCCC) 0.81; (in CCOC(C)=O) 0.23; (in CCOCC) 0.79; (in Cc1ccccc1) 0.82; (in ClC(Cl)(Cl)Cl) 0.81; (in ClC(Cl)Cl) 0.78. The compound also had a photoluminescence quantum yield (in ClCCl) of 0.19.
Turning to `CN(C)c1ccc(C(=O)Nc2ccccc2)cc1`, the photoluminescence quantum yield by setting is: (in C1CCCCC1) 0.0011; (in C1CCOC1) 0.0061; (in CC#N) 0.0107; (in CCOCC) 0.0036.
Regarding `Cc1cccc2[n+]1[B-](F)(F)n1c(c3cccc4cccc1c43)=N2`, the photoluminescence quantum yield is, setting by setting: (in C1CCOC1) 0.99; (in CC#N) 0.99; (in CCCCCC) 0.99; (in Cc1ccccc1) 0.99; (in ClCCl) 0.99.
With `N#Cc1ccc(N/N=C/c2ccc3ccccc3c2O)cc1`, the photoluminescence quantum yield (in CO) was determined as 0.13.
In the case of `COc1ccc(C2=C(c3ccccc3)C(c3ccccc3)=[N+]3C2=Nc2c(-c4ccc(OC)cc4)c(-c4ccccc4)c(-c4ccccc4)n2[B-]3(F)F)cc1`, the photoluminescence quantum yield (in Cc1ccccc1) turned out to be 0.04.
Regarding `COc1ccc(-c2sc3c(-c4ccc(OC)cc4)c4n(c3c2-c2ccc(OC)cc2)[B-](F)(F)[N+]2=Cc3c(-c5ccc(OC)cc5)c5sc(-c6ccc(OC)cc6)c(-c6ccc(OC)cc6)c5n3[B-](F)(F)[N+]2=C4)cc1`, the photoluminescence quantum yield by setting is: (in CC#N) 0.36; (in CCCCCC) 0.46; (in CN(C)C=O) 0.32; (in Cc1ccccc1) 0.51; (in ClCCl) 0.5.
The compound `CN1C(=CC2=C([O-])C(=CC3=[N+](C)c4ccc(Cl)cc4C3(C)C)C2=O)C(C)(C)c2cc(Cl)ccc21` returned a photoluminescence quantum yield (in CC(C)O) of 0.1.
For `C(=C(c1ccccc1)c1ccccc1)c1ccc(C=C(c2ccccc2)c2ccccc2)cc1`, under “in C1CCOC1”, the photoluminescence quantum yield stood at 0.017.
As to `CN(C)c1ccc(-c2cc(-c3ccccc3)nn2C)cc1`, for the setting “in ClCCl”, the photoluminescence quantum yield was found to be 0.06.
Take `COc1ccc2c3c(c4ccc(OC)cc4c2c1)C(C)(C)c1ccccc1-3`: the photoluminescence quantum yield (in C1CCCCC1) was 0.19.
Turning to `CN(C)c1ccc(C(=Cc2ccc(/C=C/c3ccc(C#N)cc3)cc2)c2ccc(N(C)C)cc2)cc1`, the photoluminescence quantum yield (in C1CCOC1) was 0.042.
The compound `COc1ccc2cc3cccc[n+]3cc2c1` yielded a photoluminescence quantum yield (in O) of 0.2.
Consider `CCCCC(CC)COc1ccc2nc(-c3ccc(-c4cccs4)s3)sc2c1` (configuration not stated), for which the photoluminescence quantum yield (in ClCCl) is 0.2.
The compound `N[C@@H](Cn1nnc2cc(-c3ccc(N4CCOCC4)cc3)ccc21)C(=O)O` came in with a photoluminescence quantum yield (in CO) of 0.004.
`c1ccc([B-]23Oc4ccccc4-c4c5[n+]6c(c([n+]42)-c2ccccc2O3)-c2ccccc2O[B-]6(c2ccccc2)Oc2ccccc2-5)cc1`: the photoluminescence quantum yield (in ClCCl) came out at 0.2.
For `COC(=O)c1nc2c(N)nc(N(C)C)nc2n1Cc1ccccc1`, the photoluminescence quantum yield is, setting by setting: (in C1COCCO1) 0.95; (in CC#N) 0.75; (in CO) 0.76; (in ClCCl) 0.95.
Regarding `Cc1cc(-c2nc(-c3ccccc3)nc(-c3ccccc3)n2)c(C)cc1-c1ccc2c(c1)C1(c3ccccc3-c3ccccc31)c1ccccc1N2c1ccccc1`, under “in c1cc(-c2cccc(-n3c4ccccc4c4ccccc43)c2)cc(-n2c3ccccc3c3ccccc32)c1”, the photoluminescence quantum yield is 0.98.

The record behind these values is the Deep4Chem optical property database.
